We go through four compounds from patent publication US20020111386A1, “Apparatus for pulmonary delivery of drugs with simultaneous liquid lavage and ventilation” (priority 1989, published 2002).

The structures appear in SMILES notation.

The test system of this test is anesthetized and tracheotomized young cats. In words: Pulmonary administration of drugs dispersed in PFC liquid during liquid ventilation: cardiovascular and airway smooth muscle effects. Type of test: in vivo, cat. The note with it: for effect on airway on addition to perfluorocarbon ventilation liquid: added to a perfluorocarbon ventilation liquid. Here is the method:
When testing the dose-dependency effect of the pulmonary administration of acetylcholine [ACh], the effect after the administration of the drug (expressed as a percentage of the baseline), as a function of the concentration of the drug, was monitored.
Here, the ACh was dispersed in the PFC liquid medium. The initial amount of ACh dispersed in the PFC liquid was 0.01 mg per each kilogram of the laboratory animal's body weight.
Each of the animals tested had at least one of the following parameters recorded before, during and after the pulmonary administration of the drug: (a) heart rate (bpm), (b) mean arterial pressure (mm Hg), and (c) tracheal pressure (cm water). The averages for each of these recorded parameters were then calculated, depending upon the number of cats tested. These calculated values are plotted on the graph in FIG. 35.
In addition to the above, the following parameters were also monitored and/or controlled: tidal volume, inspiratory and expiratory liquid flow rate, arterial chemistry, pulmonary compliance and resistance, and/or breathing frequency.
For each incremental increase, the animals tested had at least one of the aforementioned parameters recorded before and after the pulmonary administration of the drug.
Also for each incremental increase, the averages for each recorded parameter were calculated and plotted on the graph in FIG. 35.
Another way in which the effect of the pulmonary administration of ACh was tested was by monitoring carotid pressure, as a function of time, before, during and after the pulmonary administration of the drug. Here, 0.6 mg/kg of Ach was dispersed in the PFC liquid medium.
Yet another way in which the effect of the pulmonary administration of ACh was tested was by monitoring tracheal pressure, as a function of time, before, during and after the pulmonary administration of the drug.
Here, 0.6 mg/kg of ACh was dispersed in the PFC liquid medium.
When testing the dose-dependency effect of the pulmonary administration of epinephrine [Epi], the effect after the administration of the drug (expressed as a percentage of the baseline), as a function of the concentration of the drug, was monitored.
Here, the Epi was dispersed in the PFC liquid medium. The initial amount of Epi dispersed in the PFC liquid was 0.01 mg Per each kilogram of the laboratory animal's body weight.
Each of the animals tested had at least one of the following parameters recorded before and after the pulmonary administration of the drug: (a) heart rate (bpm), (b) mean arterial pressure (mm Hg), and (c) tracheal pressure (cm water). The averages for each of these recorded parameters were then calculated, depending upon the number of cats tested. These calculated values are plotted on the graph in FIG. 36.
Also for each incremental increase, the averages for each recorded parameter were calculated and plotted on the graph in FIG. 36.
Another way in which the effect of the pulmonary administration of Epi was tested was by monitoring the change in mean arterial pressure and heart rate resulting from drug delivery.
Here, 0.50 mg/kg of Epi was dispersed in the PFC liquid medium.
When testing the dose-dependency effect of the pulmonary administration of priscoline [P], the effect after the administration of the drug (expressed as a percentage of the baseline), as a function of the concentration of the drug, was monitored.
Here, the P was dispersed in the PFC liquid medium. The initial amount of P dispersed in the PFC liquid was 4 mg.
Each of the animals tested weighed approximately 3 kg. Each of these test animals had at least one of the following parameters recorded before and after the pulmonary administration of the drug: (a) heart rate (bpm), (b) mean arterial pressure (mm Hg), and (c) right ventricular pressure.
The averages for each of the aforementioned recorded parameters were then calculated, depending upon the number of cats tested. These calculated values are plotted on the graph in FIG. 37. […]

Setting [1] is: P 4 mg to 12 mg in inspired PFC liquid, animals approx. 3 kg, FIG. 37.
Where [2] appears, read: Epi 0.01 to 1.0 mg/kg in inspired PFC liquid, FIG. 36.

Take `CC(=O)OCC[N+](C)(C)C` [ACh, acetylcholine]: under “0.6 mg/kg ACh in PFC liquid”, the “increase in tracheal pressure after drug administration” value is reported as “about 6 mm Hg”, the “total time necessary to decrease the carotid pressure by about 40 mm Hg” value is given as “about 10 seconds” and the “total time necessary to increase the tracheal pressure (cm water) by about 5 mm Hg” value was “about 20 seconds”. For the same compound, the “decrease in carotid pressure after drug administration” value (0.6 mg/kg ACh in PFC liquid, via endotracheal tube) was “about 40 mm Hg”.

Regarding `c1ccc(CC2=NCCN2)cc1` [P, priscoline], under “12 mg P in PFC liquid”, the “decrease in carotid pressure after drug administration” value was “about 30 mm Hg”, the “onset of decrease in carotid pressure after administration” value is recorded as “almost instantaneously” and the “total time necessary to decrease the carotid pressure by about 30 mm Hg” value was “about 10 seconds”. Moreover, under setting [1], the “heart rate, dose-dependent response (percentage of baseline)” value is “remained fairly constant”; the “mean arterial pressure, dose-dependent response (percentage of baseline)” value was “decreases”; the “right ventricular pressure, dose-dependent response (percentage of baseline)” value is recorded as “decreases”.

Consider `CNC[C@H](O)c1ccc(O)c(O)c1` [Epi, epinephrine], for which the “effect on airway on addition to perfluorocarbon ventilation liquid” value is listed as “Airway dilation”. Further, under “0.50 mg/kg Epi in PFC liquid”, the “decrease in tracheal pressure after drug administration” value stood at 31% and the “increase in heart rate after drug administration” value is reported as 33%. For the same compound, under setting [2], the “heart rate, dose-dependent response (percentage of baseline)” value is “increases”; the “mean arterial pressure, dose-dependent response (percentage of baseline)” value is reported as “increases”; the “peak tracheal pressure, dose-dependent response (percentage of baseline)” value is on record as “decrease”.

As for `CC(C)NCC(O)c1ccc(O)c(O)c1` (centres unmarked) [isoproterenol], the “effect on airway on addition to perfluorocarbon ventilation liquid” value is “Airway dilation”.
